Reference: PubChem BioAssay (NCI)
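GI50 is the concentration that inhibits growth by half. TGI denotes the concentration required for complete inhibition of growth.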

What was measured:
Assay in all cases: inhibition of tumour cell growth, NCI panel, 384-well format
A498 renal = tested on: A498 renal
A549 NSCLC = tested on: A549 NSCLC
ACHN renal = tested on: ACHN renal
CAKI-1 renal = tested on: CAKI-1 renal
CCRF-CEM leukemia = tested on: CCRF-CEM leukemia
COLO 205 colon = tested on: COLO 205 colon
DU-145 prostate = tested on: DU-145 prostate
HCC-2998 colon = tested on: HCC-2998 colon
HCT-15 colon = tested on: HCT-15 colon
HL-60(TB) leukemia = tested on: HL-60(TB) leukemia
HOP-62 NSCLC = tested on: HOP-62 NSCLC
HS 578T breast = tested on: HS 578T breast
IGROV1 ovarian = tested on: IGROV1 ovarian
KM12 colon = tested on: KM12 colon
LOX IMVI melanoma = tested on: LOX IMVI melanoma
MALME-3M melanoma = tested on: MALME-3M melanoma
MCF7 breast = tested on: MCF7 breast
MDA-MB-435 melanoma = tested on: MDA-MB-435 melanoma
MDA-MB-468 breast = tested on: MDA-MB-468 breast
MOLT-4 leukemia = tested on: MOLT-4 leukemia
NCI-H226 lung = tested on: NCI-H226 lung
NCI-H23 lung = tested on: NCI-H23 lung
NCI-H322M lung = tested on: NCI-H322M lung
NCI/ADR-RES ovarian = tested on: NCI/ADR-RES ovarian
OVCAR-3 ovarian = tested on: OVCAR-3 ovarian
OVCAR-5 ovarian = tested on: OVCAR-5 ovarian
PC-3 prostate = tested on: PC-3 prostate
RXF 393 renal = tested on: RXF 393 renal
SF-268 CNS = tested on: SF-268 CNS
SF-295 CNS = tested on: SF-295 CNS
SF-539 CNS = tested on: SF-539 CNS
SK-MEL-28 melanoma = tested on: SK-MEL-28 melanoma
SK-OV-3 ovarian = tested on: SK-OV-3 ovarian
SNB-19 CNS = tested on: SNB-19 CNS
SNB-75 CNS = tested on: SNB-75 CNS
SW-620 colon = tested on: SW-620 colon
T-47D breast = tested on: T-47D breast
UACC-257 melanoma = tested on: UACC-257 melanoma
UO-31 renal = tested on: UO-31 renal
BT-549 breast = tested on: BT-549 breast
EKVX NSCLC = tested on: EKVX NSCLC
HCT-116 colon = tested on: HCT-116 colon
HOP-92 NSCLC = tested on: HOP-92 NSCLC
HT29 colon = tested on: HT29 colon
M14 melanoma = tested on: M14 melanoma
NCI-H460 NSCLC = tested on: NCI-H460 NSCLC
NCI-H522 lung = tested on: NCI-H522 lung
OVCAR-4 ovarian = tested on: OVCAR-4 ovarian
OVCAR-8 ovarian = tested on: OVCAR-8 ovarian
RPMI-8226 leukemia = tested on: RPMI-8226 leukemia
SK-MEL-5 melanoma = tested on: SK-MEL-5 melanoma
SN12C renal = tested on: SN12C renal
SR leukemia = tested on: SR leukemia
TK-10 renal = tested on: TK-10 renal
U251 glioblastoma = tested on: U251 glioblastoma
UACC-62 melanoma = tested on: UACC-62 melanoma

## CC(C)(C)c1cc(NC(=O)Nc2ccc(-c3cn4c(n3)sc3cc(OCCN5CCOCC5)ccc34)cc2)no1
A498 renal
  GI50: 2110 nM
  TGI: 6480 nM
A549 NSCLC
  GI50: 4970 nM
  TGI: > 100000 nM
ACHN renal
  GI50: 7130 nM
  TGI: > 100000 nM
CAKI-1 renal
  GI50: 3680 nM
  TGI: > 100000 nM
CCRF-CEM leukemia
  GI50: 459 nM
  TGI: > 100000 nM
COLO 205 colon
  GI50: > 100000 nM
  TGI: > 100000 nM
DU-145 prostate
  GI50: > 100000 nM
  TGI: > 100000 nM
HCC-2998 colon
  GI50: > 100000 nM
  TGI: > 100000 nM
HCT-15 colon
  GI50: 4540 nM
  TGI: > 100000 nM
HL-60(TB) leukemia
  GI50: > 100000 nM
  TGI: > 100000 nM
HOP-62 NSCLC
  GI50: 1270 nM
  TGI: 3540 nM
HS 578T breast
  GI50: 461 nM
  TGI: 3740 nM
IGROV1 ovarian
  GI50: 4980 nM
  TGI: > 100000 nM
KM12 colon
  GI50: 559 nM
  TGI: > 100000 nM
LOX IMVI melanoma
  GI50: 2380 nM
  TGI: > 100000 nM
MALME-3M melanoma
  GI50: 1890 nM
  TGI: > 100000 nM
MCF7 breast
  GI50: 1040 nM
  TGI: > 100000 nM
MDA-MB-435 melanoma
  GI50: > 100000 nM
  TGI: > 100000 nM
MDA-MB-468 breast
  GI50: 3170 nM
  TGI: 8590 nM
MOLT-4 leukemia
  GI50: 412 nM
  TGI: > 100000 nM
NCI-H226 lung
  GI50: 3820 nM
  TGI: > 100000 nM
NCI-H23 lung
  GI50: 684 nM
  TGI: > 100000 nM
NCI-H322M lung
  GI50: 2990 nM
  TGI: > 100000 nM
NCI/ADR-RES ovarian
  GI50: > 100000 nM
  TGI: > 100000 nM
OVCAR-3 ovarian
  GI50: 3030 nM
  TGI: > 100000 nM
OVCAR-5 ovarian
  GI50: > 100000 nM
  TGI: > 100000 nM
PC-3 prostate
  GI50: 1630 nM
  TGI: > 100000 nM
RXF 393 renal
  GI50: 184 nM
  TGI: 571 nM
SF-268 CNS
  GI50: 584 nM
  TGI: 2550 nM
SF-295 CNS
  GI50: 1120 nM
  TGI: > 100000 nM
SF-539 CNS
  GI50: 1080 nM
  TGI: 3170 nM
SK-MEL-28 melanoma
  GI50: 12400 nM
  TGI: > 100000 nM
SK-OV-3 ovarian
  GI50: 1670 nM
  TGI: > 100000 nM
SNB-19 CNS
  GI50: 3370 nM
  TGI: > 100000 nM
SNB-75 CNS
  GI50: 1410 nM
  TGI: 4700 nM
SW-620 colon
  GI50: > 100000 nM
  TGI: > 100000 nM
T-47D breast
  GI50: 94 nM
  TGI: 450 nM
UACC-257 melanoma
  GI50: 4090 nM
  TGI: > 100000 nM
UO-31 renal
  GI50: > 100000 nM
  TGI: > 100000 nM

## CCc1cnn2c(NCc3ccc[n+]([O-])c3)cc(N3CCCC[C@H]3CCO)nc12
A498 renal
  GI50: < 10 nM
  TGI: < 10 nM
A549 NSCLC
  GI50: < 10 nM
  TGI: > 100000 nM
ACHN renal
  GI50: < 10 nM
  TGI: < 10 nM
BT-549 breast
  GI50: < 10 nM
  TGI: < 10 nM
CAKI-1 renal
  GI50: < 10 nM
  TGI: > 100000 nM
COLO 205 colon
  GI50: < 10 nM
  TGI: < 10 nM
DU-145 prostate
  GI50: < 10 nM
  TGI: < 10 nM
EKVX NSCLC
  GI50: < 10 nM
  TGI: < 10 nM
HCC-2998 colon
  GI50: < 10 nM
  TGI: < 10 nM
HCT-116 colon
  GI50: < 10 nM
  TGI: > 100000 nM
HCT-15 colon
  GI50: < 10 nM
  TGI: 21.8 nM
HL-60(TB) leukemia
  GI50: < 10 nM
  TGI: < 10 nM
HOP-62 NSCLC
  GI50: < 10 nM
  TGI: < 10 nM
HOP-92 NSCLC
  GI50: < 10 nM
  TGI: > 100000 nM
HS 578T breast
  GI50: < 10 nM
  TGI: < 10 nM
HT29 colon
  GI50: < 10 nM
  TGI: < 10 nM
IGROV1 ovarian
  GI50: < 10 nM
  TGI: < 10 nM
KM12 colon
  GI50: < 10 nM
  TGI: > 100000 nM
LOX IMVI melanoma
  GI50: < 10 nM
  TGI: < 10 nM
M14 melanoma
  GI50: < 10 nM
  TGI: < 10 nM
MALME-3M melanoma
  GI50: < 10 nM
  TGI: < 10 nM
MCF7 breast
  GI50: < 10 nM
  TGI: > 100000 nM
MDA-MB-435 melanoma
  GI50: < 10 nM
  TGI: < 10 nM
MDA-MB-468 breast
  GI50: < 10 nM
  TGI: < 10 nM
MOLT-4 leukemia
  GI50: < 10 nM
  TGI: < 10 nM
NCI-H226 lung
  GI50: < 10 nM
  TGI: < 10 nM
NCI-H23 lung
  GI50: < 10 nM
  TGI: < 10 nM
NCI-H322M lung
  GI50: < 10 nM
  TGI: < 10 nM
NCI-H460 NSCLC
  GI50: < 10 nM
  TGI: < 10 nM
NCI-H522 lung
  GI50: < 10 nM
  TGI: < 10 nM
NCI/ADR-RES ovarian
  GI50: 41.3 nM
  TGI: 250 nM
OVCAR-3 ovarian
  GI50: < 10 nM
  TGI: < 10 nM
OVCAR-4 ovarian
  GI50: < 10 nM
  TGI: < 10 nM
OVCAR-5 ovarian
  GI50: < 10 nM
  TGI: < 10 nM
OVCAR-8 ovarian
  GI50: < 10 nM
  TGI: < 10 nM
PC-3 prostate
  GI50: < 10 nM
  TGI: < 10 nM
RPMI-8226 leukemia
  GI50: < 10 nM
  TGI: < 10 nM
RXF 393 renal
  GI50: < 10 nM
  TGI: < 10 nM
SF-268 CNS
  GI50: < 10 nM
  TGI: < 10 nM
SF-295 CNS
  GI50: < 10 nM
  TGI: > 100000 nM
SF-539 CNS
  GI50: < 10 nM
  TGI: < 10 nM
SK-MEL-28 melanoma
  GI50: < 10 nM
  TGI: < 10 nM
SK-MEL-5 melanoma
  GI50: < 10 nM
  TGI: < 10 nM
SK-OV-3 ovarian
  GI50: < 10 nM
  TGI: > 100000 nM
SN12C renal
  GI50: < 10 nM
  TGI: < 10 nM
SNB-19 CNS
  GI50: < 10 nM
  TGI: < 10 nM
SNB-75 CNS
  GI50: < 10 nM
  TGI: < 10 nM
SR leukemia
  GI50: < 10 nM
  TGI: < 10 nM
T-47D breast
  GI50: < 10 nM
  TGI: > 100000 nM
TK-10 renal
  GI50: < 10 nM
  TGI: < 10 nM
U251 glioblastoma
  GI50: < 10 nM
  TGI: < 10 nM
UACC-257 melanoma
  GI50: < 10 nM
  TGI: < 10 nM
UACC-62 melanoma
  GI50: < 10 nM
  TGI: < 10 nM
